Measured values as given in BindingDB's records for PubMed 38142509 (Sichuan University).

Target: Signal transducer and activator of transcription 3 (Homo sapiens, UniProt P40763)
Assay: Inhibition of STAT3 (unknown origin)

Signal transducer and activator of transcription 3, sequence (P40763 whole entry): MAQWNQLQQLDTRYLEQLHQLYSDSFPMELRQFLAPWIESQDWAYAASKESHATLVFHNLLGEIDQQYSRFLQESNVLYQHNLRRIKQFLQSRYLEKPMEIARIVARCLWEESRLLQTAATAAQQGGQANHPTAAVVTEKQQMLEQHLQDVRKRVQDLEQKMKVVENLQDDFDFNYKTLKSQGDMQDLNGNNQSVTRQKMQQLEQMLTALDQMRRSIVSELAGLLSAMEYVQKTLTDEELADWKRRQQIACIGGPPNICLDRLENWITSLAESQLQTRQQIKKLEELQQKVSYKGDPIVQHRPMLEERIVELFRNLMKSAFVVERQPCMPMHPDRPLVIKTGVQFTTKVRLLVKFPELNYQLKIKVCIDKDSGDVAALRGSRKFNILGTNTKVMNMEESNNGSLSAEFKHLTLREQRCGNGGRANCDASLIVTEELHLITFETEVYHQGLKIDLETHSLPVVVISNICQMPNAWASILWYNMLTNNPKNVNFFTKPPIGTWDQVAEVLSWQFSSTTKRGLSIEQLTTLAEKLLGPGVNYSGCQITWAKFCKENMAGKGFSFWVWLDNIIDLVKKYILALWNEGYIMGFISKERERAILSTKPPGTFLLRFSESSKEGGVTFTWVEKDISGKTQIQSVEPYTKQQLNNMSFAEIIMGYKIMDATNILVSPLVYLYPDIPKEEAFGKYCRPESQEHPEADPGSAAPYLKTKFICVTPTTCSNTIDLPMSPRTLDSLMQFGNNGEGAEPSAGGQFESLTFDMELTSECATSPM

COC(=O)[C@@]12OC[C@]34[C@H]([C@@H](O)[C@@H]1O)[C@@]1(C)CC(=O)C(O)=C(C)[C@@H]1C[C@H]3OC(=O)[C@H](OC(=O)C=C(C)C(C)(C)OC(C)=O)[C@@H]24
IC50: 2.4 nM
